One assay deals with bacterial translation. The conditions noted are these: ref [32],[33]; cited from earlier work. The method, then:
Bound in its primary site, MKM obstructs placement of C75 and A76 of the CCA end of a deacylated tRNA within the E-site of the large ribosomal subunit, with the most significant overlap of Phe3 of MKM with the 3’ terminal adenine of the E-tRNA (Fig. 3h).

The next assay deals with eukaryotic ribosome. Particulars: ref [23],[29],[55]; cited from earlier work. The source says: Superficially, the mode of action of MKM resembles that of CHX, since MKM also stalls the elongating ribosome. However, the mechanism of translation inhibition by CHX and MKM are likely to be principally different. Because of the small size of CHX, it was proposed to co-accommodate in the E site of the eukaryotic ribosome ...

Assay [1] concerns K. pneumoniae ATCC 33495 and C1559. Put plainly: C. elegans – K. pneumoniae in vivo antibiotic activity assay (survival). Further details: species or system K. pneumoniae in Caenorhabditis elegans. Particulars: MKM 64 μg/ml or polymyxin B 25 μg/ml, 6 days, vs DMSO; Log-rank (Mantel–Cox) test. The method, then:
A C. elegans double mutant strain, AU37 (glp-4(bn2);sek-1(km4)), was used for this assay due to its enhanced pathogen infection sensitivity and temperature-sensitive sterility. The infection protocol was carried out as previously described, with slight modifications to accommodate our experimental conditions. Standard C. elegans media and protocols were used for the maintenance and growth of worms. To summarize, eggs were collected from gravid adult worms by bleaching and incubated on solid agar plates at 25 °C for 48 hours, until early adulthood. Worms were thoroughly washed with M9 buffer and transferred onto LB agar plates containing lawns of infective K. pneumoniae and incubated for another 24 hours. Worms were then washed from plates and resuspended in M9 to an approximate 2 worm per microlitre concentration. A survival assay was conducted in a 96-well plate with experimental wells containing 15 μl of worms, 80 μl S-basal (5.85 g NaCl, 1 g K2HPO4, 6 g KH2PO4, 1 ml cholesterol (5 mg/ml in ethanol), H2O to 1 litre. Sterilize by autoclaving), and 5 μl of test compound. Plates were sealed with a porous film and incubated at 25°C for a total of 7 days. The number of dead worms were counted every 24 hours to generate a Kaplan-Meier survival curve.

On to `CC(=O)O[C@@H]1[C@@H](O)[C@H](O[C@H]2[C@H](OC(=O)[C@H]3CC[C@@H]4[C@H](C3)O[C@@]3(C[C@H](OC(=O)/C=C/c5ccccc5)[C@H](C)CO3)[C@]43CO3)O[C@H](C)[C@@H](O)[C@@H]2OC(C)=O)O[C@H](C)[C@H]1O` [phyllanthoside], for which the “inhibition of bacterial translation” value in the assay on bacterial translation is listed as “do not inhibit bacterial translation”.

In the case of `C/C=C\[C@H](C)[C@H]1O[C@]1(C)[C@@H](O)[C@H]1COC(=O)[C@H](O)[C@@H](OC)[C@H](C)C(=O)[C@H](C)[C@@H](O)/C(C)=C/[C@H](C)C(=O)CC[C@@H](C)C1=O` [13-deoxytedanolide], the “inhibition of bacterial translation” value in the assay on bacterial translation is given as “do not inhibit bacterial translation”. Turning to `C/C(=C\[C@H](C)C(=O)C[C@H](O)CC1CC(=O)NC(=O)C1)[C@@H]1OC(=O)/C=C/CC/C=C/C=C\[C@@H]1C` [lactimidomycin], the “inhibition of bacterial translation” value with bacterial translation is “do not inhibit bacterial translation”. In addition, in the assay on eukaryotic ribosome, the “effect on eukaryotic translation” value was “captures the ribosomes at start codons but has little effect on translation elongation or termination”. With polymyxin B [reference compound], in assay [1], the “survival benefit in C. elegans (in words)” value is given as “significantly improved survival”. Turning to `C[C@@H]1C[C@@H]([C@H](O)CC2CC(=O)NC(=O)C2)C(=O)[C@@H](C)C1` [cycloheximide], in the assay on bacterial translation, the “inhibition of bacterial translation” value was “do not inhibit bacterial translation”. For the same molecule, the “effect on eukaryotic translation” value in the assay on eukaryotic ribosome is recorded as “arrests the elongating ribosome”.

Source of the values: publication PMC12236907, “A Natural Depsipeptide Antibiotic that Targets the E site of the Bacterial Ribosome” (Research Square, 2025).
